# Where “and” joins values, the source holds several entries; their conditions need not be identical. Equal values may be shown once.
# Columns and labels:
# LLC cells = assay: Cytotoxicity study (CCK-8 cell proliferation); assay type: cell-based; details: 24 h incubation
# Procedure: Cytotoxicity study: 200 μL of cell suspension was added into a 96-well plate to have 5000 cells in each well. The plate was pre-incubated for 24 hours in a humidified incubator for cells to attach on the bottom of the plate. Stock solutions of SH1, IR-780, and DMSO were premixed with the cell culture media (DMEM containing 10% FBS) to 50 μM, and premixed solutions were filtered using a syringe filter ([…]), and then were diluted to final concentrations of 1-25 μM. After cells reached the desired density (40-50% confluency), the existing media was removed and exchanged with the above solutions at certain concentrations. The plate was further incubated for 24 h. The cell proliferation was determined using a CCK-8 Kit.
# PDAC (Pan02 cell line) = assay: Tumor targeting in Pan02 inoculated immune-deficient athymic nude mice; assay type: in vivo, mouse
# Description: General NIR-II fluorescence imaging: A 640×512-pixel InGaAs camera (Ninox640, Raptor Photonics) and macro zoom lens (0-10×; Navitar Zoom 7000 with SWIR coating) along with 900, 1070, 1100, and 1200 nm long-pass (LP) filters from either Thorlab or Edmund optics were used to collect the NIR-II signal. InGaAs camera played a role as an open-air imaging system along with the support of the FLARE system. An 808 nm fiber-coupled diode laser ([…] at the sample) was used as an excitation source. Data acquisition was done using in-house developed software. The mice fur on the region of interest was shaved prior to imaging using a clipper and removed completely using a depilatory cream. 100 μL of SH1 in 5 w/v % BSA saline ([…]) was injected through the tail vein. Mice were imaged with intact skin using InGaAs camera. At least 3 mice were analyzed for each sample.
# Statistical analysis: The fluorescence and background intensities of a region of interest over each tissue were quantified using customized imaging software and ImageJ v1.48 (National Institutes of Health, Bethesda, MD). The signal-to-background ratio (SBR) was calculated as SBR=fluorescence/background, where background was the fluorescence intensity of muscle. […] The differences among groups were determined using one-way ANOVA analysis to assess the statistical differences among more than two groups. […]
# [1] = test system: lung carcinoma (LLC cell line); assay: NIR-II fluorescence imaging of subcutaneous LLC tumor-bearing C57BL/6 mice; assay type: in vivo, mouse
# Description: General NIR-II fluorescence imaging: A 640×512-pixel InGaAs camera (Ninox640, Raptor Photonics) and macro zoom lens (0-10×; Navitar Zoom 7000 with SWIR coating) along with 900, 1070, 1100, and 1200 nm long-pass (LP) filters from either Thorlab or Edmund optics were used to collect the NIR-II signal. InGaAs camera played a role as an open-air imaging system along with the support of the FLARE system. An 808 nm fiber-coupled diode laser ([…] at the sample) was used as an excitation source. Data acquisition was done using in-house developed software. […] Mice were imaged with intact skin using InGaAs camera. At least 3 mice were analyzed for each sample. Tumor-bearing mouse models: Animals were housed in an AAALAC-certified facility and were studied under the protocols approved by the MGH IACUC (2016N000136). Mice were maintained under anesthesia with isoflurane and oxygen during the experiment. To establish the various tumor-bearing mouse models including lung carcinoma, pancreatic ductal adenocarcinoma (PDAC), and triple negative breast adenocarcinoma, eight-week-old C57BL/6 mice (Taconic Farms, Germantown, NY) were subcutaneously injected with 2×10^5 LLC, Pan02, and E0771 cells suspended in DMEM/Matrigel (100 μL, 50 v/v %) in the flank region, respectively. Female C57BL/6 mice were used for the breast cancer (E0771) model, otherwise male mice were used. […] Statistical analysis: The fluorescence and background intensities of a region of interest over each tissue were quantified using customized imaging software and ImageJ v1.48 (National Institutes of Health, Bethesda, MD). The signal-to-background ratio (SBR) was calculated as SBR=fluorescence/background, where background was the fluorescence intensity of muscle. Data were reported as mean±s.e.m. with a minimum of three biological replicates. Student's t-test statistical analysis was performed to evaluate the significance of the experimental data. The differences among groups were determined using one-way ANOVA analysis to assess the statistical differences among more than two groups. […] The data was indicated with *p<0.05, ** p<0.01, *** p<0.001, and **** p<0.0001.
# [2] = In vivo biodistribution and pharmacokinetics in CD-1 mice; set-up: species or system mouse
# Description: In vivo biodistribution and pharmacokinetics of SH dyes: Animals were housed in an AAALAC-certified facility and were studied under the supervision of MGH IACUC in accordance with the approved institutional protocol. Six-week-old CD-1 mice (male; 25-30 g) were purchased from Charles River Laboratories (Wilmington, MA). Mice were maintained under anesthesia with isoflurane and oxygen during the preparation prior to injection. The end of the tail was cut for blood collection. Before injection, blood was sampled in capillary tubes (Fisher Scientific, Pittsburgh, PA) as a reference. […] Mice were imaged using the in-house built NIR-II imaging system. After 24 h post-injection, mice were sacrificed to image organs. At least 3 mice were analyzed for each sample. Results were presented as an exponential decay curve using Prism software version 9.0.2 (GraphPad, San Diego, CA).
# [3] = Optical properties and NIR-II quantum yield in 5% BSA saline; assay type: physicochemical
# Procedure: Fluorescence Quantum yield measurement and physicochemical properties: The absorption and emission spectra of fluorophores were measured in 5% BSA saline using UV/Vis/NIR spectrometers (USB2000+VIS+NIR+ES and Flame-NIR, Ocean Insight, Dunedin, FL). Fluorescence emission spectra were collected by NIR excitation with an 808-nm laser. To calculate NIR-II fluorescence quantum yield, the following equation was used:
# [formula] • where QYsample is the QY of SH1, QYref is the QY of ICG in 30% FBS supplemented with 50 mM HEPES, nsample and nref are the refractive indices of SH1 and ICG solutions which are both water (1.33) in this case. In silico calculations of molecular weight, the distribution coefficient (LogD at pH 7.4), surface molecular charge, polarizability, and 3D molecular surface area were performed using MarvinSketch (ChemAxon, Budapest, Hungary).
compound,measurement,setting,value
"CCCCN1/C(=C/C=C2\CCCC(/C=C/C3=[N+](CCCC)c4ccc(Cl)cc4C3(C)C)=C2Cl)C(C)(C)c2cc(Cl)ccc21 [SH1, 1-butyl-2-((E)-2-((E)-3-(2-((E)-1-butyl-5-chloro-3,3-dimethylindolin-2-ylidene)ethylidene)-2-chlorocyclohex-1-en-1-yl)vinyl)-5-chloro-3,3-dimethyl-3H-indol-1-ium]",concentration that did not affect cell proliferation,LLC cells,up to 10 μM
same,tumor-to-muscle signal ratio (TMR),PDAC (Pan02 cell line),~3.0 and 3.6
same,tumor targeting / tumor signal,"[1]; intravenous, NIR-II imaging until 48 h post-injection",superb signal intensity in tumor area
same,TBR,[1]; larger-sized lung tumors,23.7
same,pharmacokinetic model,[2]; 1 μmol/kg intravenous,one-compartment model
same,time to complete distribution,[2]; 1 μmol/kg intravenous,≤ 24 h
same,organ distribution,[2]; 24 h post-injection,major distribution in the liver and spleen
same,half-life,"[2]; male, CD-1, mouse, whole blood, 1 umol/kg, 1 μmol/kg intravenous, read-out: elimination blood half-life t½ (converted)",5.39 ± 1.53 h
same,NIR-II tail emission up to,[3]; 5% BSA saline,~1250 nm
same,extinction coefficient,[3]; 5% BSA saline,"333,600 M^−1 cm^−1"
same,fluorescence emission maximum (NIR-I),[3]; 5% BSA saline,820 nm
same,quantum yield,[3]; 5 w/v % BSA saline,11%
same,brightness in the NIR-II region relative to ICG,"[3]; 808 nm excitation, 1,070 nm LP",2.2 fold
same,brightness in the NIR-II region relative to IR-780,"[3]; 808 nm excitation, 1,070 nm LP",1.7 fold
same,fluorescence brightness in the NIR-II region compared with ICG,[3]; NIR-II region,225%

# From patent publication US20260166182A1, “CYANINE-BASED FLUOROPHORES” (The General Hospital Corporation, priority 2022, published 2026)
